Assay results taken from US10221163B2 (priority 2015, dated 2019).
Read-outs that look alike come from different tables or passages of the source.

How the values were obtained:
[1] = test system: Pseudomonas aeruginosa efflux− (MB9799), IMP-1; assay type: cell-based; conditions: concentration restoring susceptibility to imipenem at 2 μg/mL in the presence of a class A, C, D serine β-lactamase inhibitor closely related to relebactam
How it was run: (§1)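 P. aeruginosa PAO1-derived IMP-1 strains, efflux+ MB9798 and efflux− MB9799, tested by standard microbroth MIC with imipenem and/or ceftazidime fixed, usually at CLSI breakpoint, plus fixed class A/C β-lactamase inhibitor against AmpC. Inhibitor titrated; concentration restoring susceptibility recorded; MB9798/MB9799 fold difference indicates efflux.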

[2] = target: IMP-1 (Serratia marcescens, UniProt P52699); assay: biochemical; assay type: biochemical; conditions: fluorescence assay, CCF2-FA substrate, 2 pM enzyme, 2 hours at 25° C.; read-out: IMP-1 IC50
How it was run: (§2)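 Two-hour, 25° C incubation of enzyme with inhibitor and CCF2-FA (7-hydroxycoumarin–cephalosporin–fluorescein). Fluorescence read-out; IC50 via 4-parameter fit.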

[3] = target: NDM-1 (Klebsiella pneumoniae, UniProt C7C422); assay: biochemical; assay type: biochemical; conditions: fluorescence assay, CCF2-FA substrate, 1 pM enzyme, 2 hours at 25° C.; read-out: NDM-1 IC50
How it was run: as §2

[4] = test system: Pseudomonas aeruginosa MB9798 vs MB9799; conditions: ratio MITC95 PA_9798/MITC95 PA_9799
How it was run: as §1

[5] = target: VIM-1 (Pseudomonas aeruginosa (strain ATCC 15692 / DSM 22644 / CIP 104116 / JCM 14847 / LMG 12228 / 1C / PRS 101 / PAO1), UniProt A0A0F7KYQ8); assay: biochemical; conditions: CCF2-FA substrate, 30 pM enzyme, 2 hours at 25° C.
How it was run: as §2

[6] = test system: Pseudomonas aeruginosa efflux+ (MB9798), IMP-1; assay type: cell-based; conditions: concentration restoring susceptibility to imipenem at 2 μg/mL in the presence of a class A, C, D serine β-lactamase inhibitor closely related to relebactam
How it was run: as §1

[7] = test system: Escherichia coli expressing NDM-1 (CLB30005, CLB30016); assay type: cell-based; conditions: with imipenem 1 μg/ml; 95% inhibition of bacterial growth
How it was run: (§3)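 Imipenem 1 μg/ml + inhibitor; MBL-expressing clinical strains in 1.1×CAMHB, inoculum from saline suspension diluted 1:100; 35° C, 22–24 h; absorbance read-out.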

[8] = test system: Klebsiella pneumoniae expressing VIM-1 (IHMA599644); assay type: cell-based; conditions: with imipenem 1 μg/ml; 95% inhibition of bacterial growth
How it was run: as §3

[9] = test system: Serratia marcescens expressing IMP-1 (CL5741); assay type: cell-based; conditions: with imipenem 1 μg/ml; 95% inhibition of bacterial growth
How it was run: as §3

[10] = fluorescence assay, read-out: VIM-1 IC50

NDM-1, sequence (C7C422 whole entry, looked up, species assumed): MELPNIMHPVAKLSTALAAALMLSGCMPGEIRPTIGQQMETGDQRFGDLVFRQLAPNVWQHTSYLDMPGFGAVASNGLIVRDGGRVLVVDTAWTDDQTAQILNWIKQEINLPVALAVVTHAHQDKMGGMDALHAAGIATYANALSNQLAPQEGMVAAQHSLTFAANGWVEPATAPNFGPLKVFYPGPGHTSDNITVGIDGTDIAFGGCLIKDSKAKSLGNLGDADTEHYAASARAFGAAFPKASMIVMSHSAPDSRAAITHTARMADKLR
IMP-1, sequence (P52699 whole entry, looked up, species assumed): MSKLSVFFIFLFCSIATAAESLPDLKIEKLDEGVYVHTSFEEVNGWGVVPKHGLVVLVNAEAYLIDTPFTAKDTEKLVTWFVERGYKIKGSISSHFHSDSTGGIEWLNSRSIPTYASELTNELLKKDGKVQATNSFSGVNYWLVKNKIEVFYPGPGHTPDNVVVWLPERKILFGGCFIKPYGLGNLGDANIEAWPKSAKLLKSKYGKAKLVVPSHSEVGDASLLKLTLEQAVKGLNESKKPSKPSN

Compound | P. aeruginosa expressing IMP-1, efflux − (MB9799) MITC95 [1] [µM] | IC50 [2] [nM] | IC50 [3] [nM] | Efflux ratio [4] | IC50 ([5]; VIM-1 IC50, fluorescence assay) [nM] | P. aeruginosa expressing IMP-1, efflux + (MB9798) MITC95 [6] [µM] | Escherichia coli expressing NDM-1 (CLB30016) MITC95 [7] [µM] | Klebsiella pneumoniae expressing VIM-1 (IHMA599644) MITC95 [8] [µM] | Serratia marcescens expressing IMP-1 (CL5741) MITC95 [9] [µM] | IC50 [5, 10] [nM]
CNC(=O)CNS(=O)(=O)c1ccc(-c2cccc3sc(N)nc23)c(-c2nnn[nH]2)c1S(N)(=O)=O [Example 23, N^2-{[4-(2-amino-1,3-benzothiazol-4-yl)-2-sulfamoyl-3-(1H-tetrazol-5-yl)phenyl]sulfonyl}-N-methylglycinamide] | 3.125 | 0.294 | 0.0511 | 1.00 | 0.224 | 3.125 | 25 | 12.5 | 6.25 | –
COCCNS(=O)(=O)c1ccc(-c2cccc3sc(N)nc23)c(-c2nnn[nH]2)c1S(N)(=O)=O [Example 24, 4-(2-amino-1,3-benzothiazol-4-yl)-N^1-(2-methoxyethyl)-3-(1H-tetrazol-5-yl)benzene-1,2-disulfonamide] | 3.125 | 0.235 | 0.0732 | 4.00 | – | 12.5 | 25 | 12.5 | 3.125 | 0.205
Nc1nc2c(-c3ccc(S(=O)(=O)N4CCC(CO)CC4)c(S(N)(=O)=O)c3-c3nnn[nH]3)cccc2s1 [Example 25, 3-(2-amino-1,3-benzothiazol-4-yl)-6-{[4-(hydroxymethyl)piperidin-1-yl]sulfonyl}-2-(1H-tetrazol-5-yl)benzenesulfonamide] | 3.125 | 2.24 | 3.02 | 16.00 | – | 50 | 25 | 25 | 6.25 | 4.52
CN(C)C1CCN(S(=O)(=O)c2ccc(-c3cccc4sc(N)nc34)c(-c3nnn[nH]3)c2S(N)(=O)=O)CC1 [Example 26, 3-(2-amino-1,3-benzothiazol-4-yl)-6-{[4-(dimethylamino)piperidin-1-yl]sulfonyl}-2-(1H-tetrazol-5-yl)benzenesulfonamide] | 3.125 | 1.15 | 0.974 | 2.00 | – | 6.25 | 12.5 | 12.5 | 3.125 | 1.66
CN1CCN(S(=O)(=O)c2ccc(-c3cccc4sc(N)nc34)c(-c3nnn[nH]3)c2S(N)(=O)=O)CC1 [Example 27, 3-(2-amino-1,3-benzothiazol-4-yl)-6-[(4-methylpiperazin-1-yl)sulfonyl]-2-(1H-tetrazol-5-yl)benzenesulfonamide] | 6.25 | 1.59 | 0.825 | 2.00 | – | 12.5 | 12.5 | 25 | 6.25 | 1.92
Nc1nc2c(-c3ccc(S(=O)(=O)N4CCNC(=O)C4)c(S(N)(=O)=O)c3-c3nnn[nH]3)cccc2s1 [Example 28, 3-(2-amino-1,3-benzothiazol-4-yl)-6-[(3-oxopiperazin-1-yl)sulfonyl]-2-(1H-tetrazol-5-yl)benzenesulfonamide] | 3.125 | 0.646 | 0.646 | 4.00 | – | 12.5 | 25 | 12.5 | 6.25 | 0.726
Nc1nc2c(-c3ccc(S(=O)(=O)N4CCOCC4)c(S(N)(=O)=O)c3-c3nnn[nH]3)cccc2s1 [Example 29, 3-(2-amino-1,3-benzothiazol-4-yl)-6-(morpholin-4-ylsulfonyl)-2-(1H-tetrazol-5-yl)benzenesulfonamide] | 3.125 | 2.08 | 1.35 | 16.00 | 3.06 | 50 | 25 | 25 | 6.25 | –
Nc1nc2c(-c3ccc(S(=O)(=O)NCCC4CNC4)c(S(N)(=O)=O)c3-c3nnn[nH]3)cccc2s1 [Example 30, 4-(2-amino-1,3-benzothiazol-4-yl)-N1-(2-azetidin-3-ylethyl)-3-(1H-tetrazol-5-yl)benzene-1,2-disulfonamide] | 1.563 | 0.369 | 0.0686 | 1.00 | 0.308 | 1.563 | 6.25 | 6.25 | 3.125 | –
CNCCNS(=O)(=O)c1ccc(-c2cccc3sc(N)nc23)c(-c2nnn[nH]2)c1S(N)(=O)=O [Example 31, 4-(2-amino-1,3-benzothiazol-4-yl)-N^1-[2-(methylamino)ethyl]-3-(1H-tetrazol-5-yl)benzene-1,2-disulfonamide] | 1.563 | 2.02 | 2.59 | 1.50 | – | 2.344 | 9.375 | 6.25 | 2.344 | 8.18
Nc1nc2c(-c3ccc(S(=O)(=O)NC4CCNCC4)c(S(N)(=O)=O)c3-c3nnn[nH]3)cccc2s1 [Example 32, 4-(2-amino-1,3-benzothiazol-4-yl)-N1-piperidin-4-yl-3-(1H-tetrazol-5-yl)benzene-1,2-disulfonamide] | 1.563 | 0.34 | 0.069 | 0.50 | 0.296 | 0.7813 | 6.25 | 3.125 | 1.563 | –
COc1ccnc(CNS(=O)(=O)c2ccc(-c3cccc4sc(N)nc34)c(-c3nnn[nH]3)c2S(N)(=O)=O)n1 [Example 34, 4-(2-amino-1,3-benzothiazol-4-yl)-N1-[(4-methoxypyrimidin-2-yl)methyl]-3-(1H-tetrazol-5-yl)benzene-1,2-disulfonamide] | 6.25 | 0.429 | 0.0816 | 4.00 | – | 25 | 25 | 50 | 6.25 | 0.329
